{"source": "patent EP4652843A1", "about": "“BIOPESTICIDE COMPOSITION, PROCEDURE OF OBTAIN THEREOF, AND METHOD FOR CONTROLLING AND TREATING BROAD SPECTRUM OF PESTS IN PLANTS” (Kimitec Biogroup S.L, priority 2024, dated 2025)", "key": {"Bemisia tabaci": {"system": "Bemisia tabaci", "assay": "Contact mortality (Leaf Disc Method), solvent comparison, Bemisia tabaci", "conditions": "Group A: individual solvents, diluted at 0.3% (3cc/L) in water without formulation, Abbott's corrected", "description": "(§1) The objective of this bioassay is to evaluate the effect of test items on the mortality of insect (Fam Tortricidae and Fam Gelechiidae) and other side pests as target in a short/medium-term (0-24 hours) by topical application. All trials were carried out on whole alive target. Four independent replicates of the whole setup were performed for each target as follow: (Figure 12) first of all, 10g/L agar-agar was prepared (1) and deposited in petri dish according to the target (2), after adding cut leaf disc around 4 cm diameter from healthy bean plants (3), fixing the plant material on the semi solid agar in the petri dish (4). Insect adults (from 3 to 15 according to the target) are setting on surface of leaf disc (5). Biopesticide composition was sprayed 0.1-02 ml per experimental unit (6), a total of 10 replicates for each treatment (biopesticide composition and positive control; commercial products based on anthranilic diamide and emamectin to recommend doses in the label) were used in each experiment and incubated and evaluated after 24 hours (7).\n(§2) Insects and mites were considered dead if no movement was apparent after probing with the tip of a fine brush under stereoscopic magnifying glass. Mortality percentage was calculated in treatment and control groups. If the mortality in negative control is above 20% the test was discarded.\n(§3) Means of %M were compared using a one-way analysis of variance (ANOVA, p<0.05) and LSD-test as a post hoc test to verify significant differences between single treatments using Statgraphics Centurion XVII software. When nonnormality in the data was detected, an additional Kruskal-Wallis test was conducted, and Box-and-Whisker Plot (Median Notch) was presented.\n(§4) The different compositions were tested by trials that were carried out on different relevant insect pests and acari including: Tuta absoluta, Bemisia tabaci, Myzus persicae, Frankliniella occidentalis and Tetranychus urticae. The bioassay type used was contact mortality (Leaf Disc Method) described in the example 4.\n(§5) The main treatments included in the comparison of efficacy are: Group A: Individual solvents: Benzyl alcohol, ethanol, isopropanol, and water were applied directly (purity as in the label) diluted at 0.3% (3cc/L) in water without formulation. Group B: Vegetable matrix extracts were extracted with different solvents such as benzyl alcohol, ethanol, isopropanol, and water in a blend of inert ingredients as follows: […]"}, "Myzus persicae": {"system": "Myzus persicae", "assay": "Contact mortality (Leaf Disc Method), solvent comparison, Myzus persicae", "conditions": "Group A: individual solvents, diluted at 0.3% (3cc/L) in water without formulation, Abbott's corrected", "description": "as §1, §2, §3, §4, §5"}, "[1]": {"system": "Frankliniella occidentalis", "assay": "Contact mortality (Leaf Disc Method), solvent comparison, Frankliniella occidentalis", "conditions": "Group A: individual solvents, diluted at 0.3% (3cc/L) in water without formulation, Abbott's corrected", "description": "as §1, §2, §3, §4, §5"}, "Tuta absoluta [2]": {"system": "Tuta absoluta", "assay": "Contact mortality (Leaf Disc Method), solvent comparison, Tuta absoluta", "conditions": "Group A: individual solvents, diluted at 0.3% (3cc/L) in water without formulation, Abbott's corrected", "description": "as §1, §2, §3, §4, §5"}, "Tetranychus urticae": {"system": "Tetranychus urticae", "assay": "Contact mortality (Leaf Disc Method), solvent comparison, Tetranychus urticae", "conditions": "Group A: individual solvents, diluted at 0.3% (3cc/L) in water without formulation, Abbott's corrected", "description": "as §1, §2, §3, §4, §5"}, "[3]": {"conditions": "cited from earlier work"}, "Grapholita molesta": {"system": "Grapholita molesta", "assay": "Field trial against Grapholita molesta in Prunus persica", "format": "in vivo", "conditions": "0,2cc/L, % efficacy (abbott) on fruit damage incidence, one value per plot (1-3)", "description": "(§6) The biopesticide composition (table 2) was tested in field trials against Grapholita molesta in Prunus persica […] to validate efficacy, parametrised by % efficacy (abbott) on fruit damage incidence. 3 plots were treated, each plot has 4-6 trees with a sample size of 100-300 fruits/ plot. The trees were treated with biopesticide composition and positive control; commercial products based on chlorantraniliprole for recommend doses in the label in 2 applications at interval of 10 days. Table 9. % Efficacy against Grapholita molesta in field trials."}, "Cydia pomonella": {"system": "Cydia pomonella", "assay": "Field trial against Cydia pomonella in Pyrus communis and Malus domestica", "format": "in vivo", "conditions": "0,2cc/L, one value per plot (1-3)", "description": "as §6\nThe same test was repeated in Pyrus communis and Malus domestica to validate efficacy against Cydia pomonella. Table 10. % Efficacy against Cydia pomonella in field trials"}, "[4]": {"system": "lepidoptera larvae (Grapholita molesta)", "assay": "Contact mortality (Leaf Disc Method), Grapholita molesta larvae", "format": "in vivo", "conditions": "dose 1.5 g/L; 24H after application; Abbott's corrected; mean of 4 repetitions", "description": "(§7) All trials were carried out on whole alive target.\n(§8) Mortality percentage was calculated in treatment and control groups."}, "[5]": {"system": "lepidoptera larvae (Grapholita molesta)", "assay": "Antifeedant effects: settling inhibition, Grapholita molesta larvae", "format": "in vivo", "conditions": "dose 1.5 g/L; 24H after application", "description": "The concept of antifeedant as a substance that acts on insect behaviour involves feeding reduction (FR) and settling inhibition (SI). In some cases, settling inhibition is considered as indirect repellent effect. […] Feeding reduction index (%FR) or settling inhibition index (%SI) was calculated according to the following formula: % FR or SI = (1−((T)/(C)))∗100 [formula] where: T= Settling of treated plants; C= Setting of control plants. Table 3. In vitro efficacy against lepidoptera larvae (Grapholita molesta)"}, "[6]": {"system": "lepidoptera adults (Grapholita molesta)", "assay": "Contact mortality (Leaf Disc Method), Grapholita molesta adults", "format": "in vivo", "conditions": "dose 1.5 g/L; 24H after application; Abbott's corrected", "description": "as §7, §8"}, "[7]": {"system": "lepidoptera adults (Cydia pomonella)", "assay": "Contact mortality (Leaf Disc Method), Cydia pomonella adults", "format": "in vivo", "conditions": "dose 1.5 g/L; 24H after application; Abbott's corrected", "description": "as §7, §8"}, "[8]": {"system": "lepidoptera larvae (Tuta absoluta)", "assay": "Contact mortality (Leaf Disc Method), Tuta absoluta larvae", "format": "in vivo", "conditions": "dose 0.5 kg/ha; 24H after application; Abbott's corrected; mean of 3 repetitions", "description": "as §7, §8"}, "[9]": {"system": "lepidoptera larvae (Tuta absoluta)", "assay": "Antifeedant effects: feeding reduction (choice assays), Tuta absoluta larvae", "format": "in vivo", "conditions": "dose 0.5 kg/ha, surface covered by mines, 24H after application"}, "Tuta absoluta [10]": {"system": "Tuta absoluta", "assay": "Field trial against Tuta absoluta in Solanum lycopersicum", "format": "in vivo", "conditions": "1,5 gr/L, % efficacy (Henderson & Tilton) on damaged leaflets, one value per plot (1-3)", "description": "The biopesticide composition was tested in field trials against Tuta absoluta in Solanum lycopersicum to validate efficacy, parametrised by % efficacy (Henderson & Tilton) on damaged leaflets (50 random leaflets/Plot). 3 plots were treated, each plot has 10m^2. The plants were treated with biopesticide composition and positive control; commercial products based on emamectin for recommend doses in the label in 3 applications at interval of 7 days. Table 11. % Efficacy against Tuta absoluta in field trials"}}, "note": "Several values for one entry are separate records, joined by “and”; a condition that tells them apart may be missing. Equal entries are not always repeated. Marks after values point to notes of the source that are not given here.", "data": [{"compound": "CCO", "note": "[Ethanol (EtOH), Ethanol]", "values": [{"measurement": "Contact mortality (%M) Bemisia tabaci", "setting": "Bemisia tabaci", "result": "23.5 ± 8.4 ^b %"}, {"measurement": "Contact mortality (%M) Myzus persicae", "setting": "Myzus persicae", "result": "16.7 ± 9.1 ^a %"}, {"measurement": "Contact mortality (%M) Frankliniella occidentalis", "setting": "[1]", "result": "0.0 ± 0.0 ^b %"}, {"measurement": "Contact mortality (%M) Tuta absoluta", "setting": "Tuta absoluta [2]", "result": "0.0 ± 0.0 ^c %"}, {"measurement": "Contact mortality (%M) Tetranychus urticae", "setting": "Tetranychus urticae", "result": "0.0 ± 0.0 ^b %"}]}, {"compound": "OCc1ccccc1", "note": "[Benzyl alcohol (BnOH), Benzyl alcohol]", "values": [{"measurement": "Contact mortality (%M) Bemisia tabaci", "setting": "Bemisia tabaci", "result": "49.8 ± 6.2 ^a %"}, {"measurement": "Contact mortality (%M) Myzus persicae", "setting": "Myzus persicae", "result": "19.8 ± 6.2 ^a %"}, {"measurement": "Contact mortality (%M) Frankliniella occidentalis", "setting": "[1]", "result": "12.5 ± 7.8 ^a %"}, {"measurement": "Contact mortality (%M) Tuta absoluta", "setting": "Tuta absoluta [2]", "result": "29.6 ± 5.7 ^a %"}, {"measurement": "Contact mortality (%M) Tetranychus urticae", "setting": "Tetranychus urticae", "result": "33.4 ± 4.1 ^a %"}, {"measurement": "solubility in water", "setting": "[3]", "result": 4, "unit": "g/100 mL"}]}, {"compound": "CNC(=O)c1cc(Cl)cc(C)c1NC(=O)c1cc(Br)nn1-c1ncccc1Cl", "note": "[Chlorantraniliprole]", "values": [{"measurement": "% Efficacy against Grapholita molesta in field trials", "setting": "Grapholita molesta; 14 days after the last application", "result": "58% and 63% and 42%"}, {"measurement": "% Efficacy against Grapholita molesta in field trials", "setting": "Grapholita molesta; 21 days after the last application", "result": "62% and 51% and 61%"}, {"measurement": "% Efficacy against Cydia pomonella in field trials", "setting": "Cydia pomonella; 10 days after the last application", "result": "59% and 62% and 75%"}, {"measurement": "% Efficacy against Cydia pomonella in field trials", "setting": "Cydia pomonella; 20 days after the last application", "result": "68% and 62% and 73%"}]}, {"compound": "Emamectin", "values": [{"measurement": "Contact mortality (%M)", "setting": "[4]", "result": "100.0 ± 0.0 ^(a) %"}, {"measurement": "Settling inhibition (%SI)", "setting": "[5]", "result": "36.0 ± 5.8", "unit": "%"}, {"measurement": "Contact mortality (%M)", "setting": "[6]", "result": "88.9 ± 2.0 ^(a) %"}, {"measurement": "Contact mortality (%M)", "setting": "[7]", "result": "94.5 ± 1.9 ^(a) %"}, {"measurement": "Contact mortality in-leaf (%M)", "setting": "[8]", "result": "80.3 ± 8.7 ^(a) %"}, {"measurement": "Contact mortality out-leaf (%M)", "setting": "[8]", "result": "65.3 ± 3.8 ^(ab) %"}, {"measurement": "Feeding reduction (%FR)", "setting": "[9]", "result": "59.1 ± 0.8", "unit": "%"}, {"measurement": "% Efficacy against Tuta absoluta in field trials", "setting": "Tuta absoluta [10]; 7 days after 1st application", "result": "62% and 43% and 71%"}, {"measurement": "% Efficacy against Tuta absoluta in field trials", "setting": "Tuta absoluta [10]; 7 days after 2nd application", "result": "53% and 58%"}, {"measurement": "% Efficacy against Tuta absoluta in field trials", "setting": "Tuta absoluta [10]; 7 days after 3rd application", "result": "67% and 61% and 55%"}]}, {"compound": "O", "note": "[Water]", "values": [{"measurement": "Contact mortality (%M) Bemisia tabaci", "setting": "Bemisia tabaci; 1440 min", "result": "0.0 ± 0.0 ^c %"}, {"measurement": "Contact mortality (%M) Myzus persicae", "setting": "Myzus persicae; 1440 min", "result": "0.0 ± 0.0 ^b %"}, {"measurement": "Contact mortality (%M) Frankliniella occidentalis", "setting": "[1]; 1440 min", "result": "0.0 ± 0.0 ^b %"}, {"measurement": "Contact mortality (%M) Tuta absoluta", "setting": "Tuta absoluta [2]; 1440 min", "result": "0.0 ± 0.0 ^c %"}, {"measurement": "Contact mortality (%M) Tetranychus urticae", "setting": "Tetranychus urticae; 1440 min", "result": "0.0 ± 0.0 ^b %"}]}, {"compound": "CC(C)O", "note": "[Isopropanol (IPN), Isopropanol]", "values": [{"measurement": "Contact mortality (%M) Bemisia tabaci", "setting": "Bemisia tabaci", "result": "0.0 ± 0.0 ^c %"}, {"measurement": "Contact mortality (%M) Myzus persicae", "setting": "Myzus persicae", "result": "0.0 ± 0.0 ^b %"}, {"measurement": "Contact mortality (%M) Frankliniella occidentalis", "setting": "[1]", "result": "0.0 ± 0.0 ^b %"}, {"measurement": "Contact mortality (%M) Tuta absoluta", "setting": "Tuta absoluta [2]", "result": "11.4 ± 7.2 ^b %"}, {"measurement": "Contact mortality (%M) Tetranychus urticae", "setting": "Tetranychus urticae", "result": "0.0 ± 0.0 ^b %"}]}]}
